Measured values taken from patent US10513518B2, “Inhibitors of the renal outer medullary potassium channel” (Merck Sharp & Dohme Corp., priority 2015, dated 2019).
pIC50: −log10 of the molar value.

Target: hROMK (hKir1.1) (Homo sapiens (Human), UniProt P48048)
Experiment: Thallium Flux Assay (ROMK channel functional thallium flux assay, FLIPR-Tetra)
Format: cell-based
Conditions: HEK293 cells stably expressing hROMK (hKir1.1); 30 min incubation with test compound
Method: The following Thallium Flux Assay was performed on each of the final product compounds in the Examples.
HEK293 cells stably expressing hROMK (hKir1.1) were grown at 37° C. in a 10% CO2 humidified incubator in complete growth media: Dulbecco's Modified Eagle Medium supplemented with non-essential amino acids, Penicillin/Streptomycin/Glutamine, G418 and FBS. At >80% confluency, aspirate the media from the flask and rinse with 10 mL Calcium/Magnesium-free PBS. 5 mL of 1× trypsin (prepared in Ca/Mg Free PBS) was added to a T-225 flask and the flask was returned to the 37° C./CO2 incubator for 2-3 minutes. The cell was dislodged by genitly banging the side of the flask by hand. The cells were titrated completely and then the cells were transferred to 25 mL complete media. The cells were centrifuged at 1,500 rpm for 6 min followed by resuspension in complete growth media and cell concentration was determined. 4E6 cells/T-225 flask attained >80% confluency in 4 days. Under ideal growth conditions and appropriate tissue culture practices, this cell line was stable for 40-45 passages.
FluxOR Kit Components (Invitrogen F10017)
• FluxOR™ Reagent (Component A) • FluxOR™ Assay Buffer (Component B)—10× Concentrate • PowerLoad™ Concentrate (Component C)—100× Concentrate • Probenecid (Component D)—Lyophilized sample is kept at −20° C. Water soluble, 100× after solubilization in 1 mL water. Store at 4° C. • FluxOR™ Chloride-free Buffer (Component E)—5× Concentrate • Potassium sulfate (K2SO4) Concentrate (Component F)—125 mM in water. Store at 4° C. • Thallium sulfate (TI2SO4) Concentrate (Component G)—50 mM in water. Store at 4° C. • DMSO (dimethyl sulfoxide, Component H)—1 mL (100%) Reagent Preparation: FluxOR Working Solutions • 1000× FluxOR™ Reagent: Reconstitute a vial of component A in 100 μl DMSO; Mix well; Store 10 μl aliquots at −20° C. • 1× FluxOR™ Assay Buffer: Dilute Component B 10-fold with water; Adjust pH to 7.4 with Hepes/NaOH; Filter and store at 4° C. • Probenecid/Assay Buffer: 100 mL of 1× FluxOR™ Assay Buffer; 1 mL of reconstituted component D; Store at 4° C. • Loading Buffer (per microplate): 10 μl 1000× FluxOR™ Reagent; 100 μl component C; 10 mL Probenecid/Assay Buffer • Compound Buffer (per microplate): 20 mL Probenecid/Assay Buffer; 0.3 mM ouabain (10 mM ouabain in water can be stored in amber bottle/aluminum foil at room temperature); Test compound • 1× FluxOR™ Chloride-Free Buffer: Prepare 1× working solution in water. Can be stored at room temperature • Stimulant Buffer (prepared at 5× final concentration in 1× FluxOR™ Chloride-Free Buffer): 7.5 mM Thallium sulfate and 0.75 mM Potassium sulfate (to give a final assay concentration of 3 mM Thallium/0.3 mM Potassium). Store at 4° C. when not in use. If kept sterile, this solution is good for months. Assay Protocol—
The ROMK channel functional thallium flux assay was performed in 384 wells, using the FLIPR-Tetra instrument. HEK-hKir1.1 cells were seeded in Poly-D-Lysine microplates and kept in a 37° C.-10% CO2 incubator overnight. On the day of the experiment, the growth media was replaced with the FluxOR™ reagent loading buffer and incubated, protected from light, at ambient temperature (23-25° C.) for 90 min. The loading buffer was replaced with assay buffer±test compound followed by 30 min incubation at ambient temperature, where the Thallium/Potassium stimulant was added to the microplate.
1. Seed HEK-hKir1.1 cells (50 μl at 20,000 cells/well) in 384-well PDL coated Microplates
2. Allow cells to adhere overnight in humidified 37° C./10% CO2 incubator
3. Completely remove cell growth media from microplate and replace with 25 μl loading buffer
4. Incubate Microplate at room temperature, protected form light, for 90 min
5. Remove loading buffer and replace with 25 μl 1× Assay Buffer±test compound.
6. Incubate microplate at room temperature, protected from light, for 30 min
7. At FLIPR-Tetra 384: Add stimulant (Thallium/Potassium) solution to microplate and monitor fluorescence. […]

Chain of hROMK (hKir1.1) (P48048 whole entry): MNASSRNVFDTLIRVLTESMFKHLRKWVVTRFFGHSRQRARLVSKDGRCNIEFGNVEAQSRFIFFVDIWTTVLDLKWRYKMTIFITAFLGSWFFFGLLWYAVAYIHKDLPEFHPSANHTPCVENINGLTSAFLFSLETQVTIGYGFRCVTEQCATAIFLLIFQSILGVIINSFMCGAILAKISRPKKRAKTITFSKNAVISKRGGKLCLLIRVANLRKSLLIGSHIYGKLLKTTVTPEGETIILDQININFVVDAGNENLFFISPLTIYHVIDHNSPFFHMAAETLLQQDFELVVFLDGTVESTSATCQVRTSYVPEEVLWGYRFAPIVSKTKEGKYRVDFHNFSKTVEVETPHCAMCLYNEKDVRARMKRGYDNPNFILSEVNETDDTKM

Compound	pIC50
8(1R,3r,5S)-8-(2-hydroxy-2-(2-methyl-6-(1H-tetrazol-1-yl)60icycle60-3-yl)ethyl)-1′-(2-methyl-3-oxocyclopent-1-en-1-yl)-8-azaspiro[bicyclo[3.2.1]octane-3,3′-pyrrolidin]-2′-one [Example 5]	7.31
Cc1nc(-n2cnnn2)ccc1C(O)CN1CCC2(CC1)CCN(C1=CS(=O)(=O)CC1)C2=O (single isomer, unassigned) [Example 1, 2-(1,1-dioxido-4,5-dihydrothiophen-3-yl)-8-(2-hydroxy-2-(2-methyl-6-(1H-tetrazol-1-yl)pyridin-3-yl)ethyl)-2,8-diazaspiro[4.5]decan-1-one]	6.19
CC1=C(N2CCC3(CCCN(CC(O)c4ccc(-n5cnnn5)nc4C)CC3)C2=O)CCC1=O (single isomer, unassigned) [Example 3A, 8-(2-hydroxy-2-(2-methyl-6-(1H-tetrazol-1-yl)pyridin-3-yl)ethyl)-2-(2-methyl-3-oxocyclopent-1-en-1-yl)-2,8-diazaspiro[4.6]undecan-1-one]	6.49
CC1=C(N2CCC3(CCCN(CC(O)c4ccc(-n5cnnn5)nc4C)CC3)C2=O)CCC1=O (single isomer, unassigned) [Example 3B, 8-(2-hydroxy-2-(2-methyl-6-(1H-tetrazol-1-yl)pyridin-3-yl)ethyl)-2-(2-methyl-3-oxocyclopent-1-en-1-yl)-2,8-diazaspiro[4.6]undecan-1-one]	7.06
CC1=C(N2CCC3(CC4CCC(C3)N4CC(O)c3ccc(-n4cnnn4)cn3)C2=O)CCC1=O [Example 6, (1R,3r,5S)-8-(2-(5-(1H-tetrazol-1-yl)pyridin-2-yl)-2-hydroxyethyl)-1′-(2-methyl-3-oxocyclopent-1-en-1-yl)-8-azaspiro[bicyclo[3.2.1]octane-3,3′-pyrrolidin]-2′-one]	6.53
Cc1c([C@@H](O)CN2CCC3(CC2)CC(=O)N(C2=CC(=O)CC2)C3)ccc2c1COC2=O [Example 12]	6.28
Cc1nc(-n2cnnn2)ccc1C(O)CN1CCC2(CC1)CC(=O)N(C1=CC(=O)CC1)C2 (centres unmarked) [Example 13]	6.45
Cc1c([C@@H](O)CN2CCC3(CC2)CCN(C2=CS(=O)(=O)CC2)C3=O)ccc2c1COC2=O [Example 16]	6.56
Cc1nc(-n2cnnn2)ccc1C(O)CN1CCC2(CC1)CC(=O)N(C1=CS(=O)(=O)CC1)C2 (centres unmarked) [Example 17]	6.22
CC1=C(N2CC3(CCN(C[C@H](O)c4ccc5c(c4C)COC5=O)CC3)CC2=O)CCC1=O [Example 20]	6.30
CC1=C(N2CCC3(CCN(CC(O)c4ncc(-n5cnnn5)cc4C)CC3)C2=O)CCC1=O (centres unmarked) [Example 24]	6.41
CC1=C(N2CCC3(CCN(CC(O)c4ncc(-n5cnnn5)cc4C)CC3)C2=O)CCC1=O (centres unmarked) [Example 25]	6.46
CC1=C(N2CCC3(CCN(CC(O)c4cnc(-n5cnnn5)c(F)c4)CC3)C2=O)CCC1=O (centres unmarked) [Example 28]	6.53
CC1=C(N2CCC3(CCN(CC(O)c4cnc(-n5cnnn5)c(F)c4)CC3)C2=O)CCC1=O (centres unmarked) [Example 29]	6.17
O=C1C=C(N2CCC3(CCN(CC(O)c4cnc(-n5cnnn5)c(F)c4)CC3)C2=O)CC1 (centres unmarked) [Example 30]	6.38
O=C1C=C(N2CCC3(CCN(CC(O)c4cnc(-n5cnnn5)c(F)c4)CC3)C2=O)CC1 (centres unmarked) [Example 31]	6.12
CC1=C(N2CCCC3(CCN(CC(O)c4ccc(-n5cnnn5)nc4C)CC3)C2=O)CCC1=O (centres unmarked) [Example 32]	6.19
CC1=C(N2CCC3(CCN(CC(O)c4ccc(-n5cnnn5)cc4F)CC3)C2=O)CCC1=O (centres unmarked) [Example 36]	6.27
O=C1C=C(N2CCC3(CCN(CC(O)c4ccc(-n5cnnn5)cc4F)CC3)C2=O)CC1 (centres unmarked) [Example 37]	6.34
CC1=C(N2CCC3(CCCN(CC(O)c4ccc(-n5cnnn5)nn4)CC3)C2=O)CCC1=O (centres unmarked) [Example 43]	6.25
CC1=C(N2CCOC3(CCN(C[C@H](O)c4ccc5c(c4C)COC5=O)CC3)C2=O)CCC1=O [Example 45]	6.05
(1R,3R,5S)-8-((R)-2-hydroxy-2-(4-methyl-1-oxo-1,3-dihydroisobenzofuran-5-yl)ethyl)-1′-(2-methyl-3-oxocyclopent-1-en-1-yl)-8-azaspiro[bicyclo[3.2.1] octane-3,3′-pyrrolidin]-2′-one [Example 4]	6.32

The remaining compounds from weak to strong by pIC50, led by results:

pIC50	Compound
6.71	Cc1cc(-n2cnnn2)ccc1C(O)CN1CCC2(CC1)CCN(C1=CC(=O)CC1)C2=O (centres unmarked) [Example 35]
6.73	O=C1C=C(N2CCC3(CCN(C[C@H](O)c4ccc(-n5cnnn5)nc4)CC3)C2=O)CC1 [Example 23]
6.92	Cc1c([C@@H](O)CN2CCC3(CC2)CCN(C2=CC(=O)CC2)C3=O)ccc2c1COC2=O [Example 11]
6.93	CC1=C(N2CCC3(CCN(C[C@H](O)c4ccc(-n5cnnn5)nc4)CC3)C2=O)CCC1=O [Example 21]
6.94	O=C1N(C2=CS(=O)(=O)CC2)CCC12CCN(C[C@H](O)c1ccc(-n3cnnn3)nc1)CC2 [Example 22]
7.00	CC1=C(N2CCC3(CCN(CC(O)c4ccc(-n5cnnn5)nn4)CC3)C2=O)CCC1=O (centres unmarked) [Example 44]
7.05	Cc1nc(-n2cnnn2)ccc1C(O)CN1CCC2(CCCN(C3=CS(=O)(=O)CC3)C2=O)CC1 (centres unmarked) [Example 38]
7.06	CC1=C(N2CCC3(CCN(CC(O)c4ccc(-n5cnnn5)cc4C)CC3)C2=O)CCC1=O (centres unmarked) [Example 26]
7.06	Cc1nc(-n2cnnn2)ccc1C(O)CN1CCC2(CC1)CCN(C1=CC(=O)CC1)C2=O (centres unmarked) [Example 14]
7.13	CC1=C(N2CCC3(CCN(CC(O)c4ccc(-n5cnnn5)cc4C)CC3)C2=O)CCC1=O (centres unmarked) [Example 27]
7.15	CC1=C(N2CCC3(CCCN(C[C@H](O)c4ccc5c(c4C)COC5=O)CC3)C2=O)CCC1=O (some centres unmarked) [Example 40]
7.21	CC1=C(N2CCC3(CCN(C[C@H](O)c4ccc5c(c4C)COC5=O)CC3)C2=O)CCC1=O [Example 19]
7.22	O=C1C=C(N2CCCC3(CCN(CC(O)c4ccc(-n5cnnn5)cn4)CC3)C2=O)CC1 (centres unmarked) [Example 42]
7.25	Cc1nc(-n2cnnn2)ccc1C(O)CN1CCC2(CC1)CCN(C1=CS(=O)(=O)CC1)C2=O (centres unmarked) [Example 15]
7.32	CC1=C(N2CCC3(CCN(CC(O)c4ccc(-n5cnnn5)nc4C)CC3)C2=O)CCC1=O (centres unmarked) [Example 18]
7.76	Cc1nc(-n2cnnn2)ccc1C(O)CN1CCC2(CCCN(C3=CC(=O)CC3)C2=O)CC1 (centres unmarked) [Example 33]
7.82	CC1=C(N2CCC3(CCCN(C[C@H](O)c4ccc5c(c4C)COC5=O)CC3)C2=O)CCC1=O (some centres unmarked) [Example 39]
7.96	Cc1c([C@@H](O)CN2CCC3(CCCN(C4=CC(=O)CC4)C3=O)CC2)ccc2c1COC2=O [Example 34]
7.97	Cc1cc(-n2cnnn2)ccc1C(O)CN1CCC2(CCCN(C3=CC(=O)CC3)C2=O)CC1 (centres unmarked) [Example 41]
